Measurements reported in PubChem BioAssay (NCI).
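Protocol summary: plate cells (96-well), add compound at 5 concentrations, incubate 48 h, interpolate endpoints linearly. TGI: concentration producing complete growth inhibition.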

Legend:
Assay in all cases: NCI anticancer screen, dose series, 48 h
786-0 renal = system: 786-0 renal
A498 renal = system: A498 renal
A549 NSCLC = system: A549 NSCLC
ACHN renal = system: ACHN renal
BT-549 breast = system: BT-549 breast
CAKI-1 renal = system: CAKI-1 renal
CCRF-CEM leukemia = system: CCRF-CEM leukemia
COLO 205 colon = system: COLO 205 colon
DU-145 prostate = system: DU-145 prostate
EKVX NSCLC = system: EKVX NSCLC
HCC-2998 colon = system: HCC-2998 colon
HCT-116 colon = system: HCT-116 colon
HCT-15 colon = system: HCT-15 colon
HL-60(TB) leukemia = system: HL-60(TB) leukemia
HOP-92 NSCLC = system: HOP-92 NSCLC
HS 578T breast = system: HS 578T breast
HT29 colon = system: HT29 colon
IGROV1 ovarian = system: IGROV1 ovarian
K-562 leukemia = system: K-562 leukemia
KM12 colon = system: KM12 colon
M14 melanoma = system: M14 melanoma
MALME-3M melanoma = system: MALME-3M melanoma
MCF7 breast = system: MCF7 breast
MDA-MB-231 breast = system: MDA-MB-231 breast
MDA-MB-435 = system: MDA-MB-435
MDA-N = system: MDA-N
MOLT-4 leukemia = system: MOLT-4 leukemia
NCI-H226 lung = system: NCI-H226 lung
NCI-H23 lung = system: NCI-H23 lung
NCI-H460 lung = system: NCI-H460 lung
NCI-H522 lung = system: NCI-H522 lung
NCI/ADR-RES ovarian = system: NCI/ADR-RES ovarian
OVCAR-3 ovarian = system: OVCAR-3 ovarian
OVCAR-4 ovarian = system: OVCAR-4 ovarian
OVCAR-5 ovarian = system: OVCAR-5 ovarian
OVCAR-8 ovarian = system: OVCAR-8 ovarian
PC-3 prostate = system: PC-3 prostate
RPMI-8226 leukemia = system: RPMI-8226 leukemia
RXF 393 renal = system: RXF 393 renal
SF-268 CNS = system: SF-268 CNS
SF-295 CNS = system: SF-295 CNS
SF-539 CNS = system: SF-539 CNS
SK-MEL-2 melanoma = system: SK-MEL-2 melanoma
SK-MEL-28 melanoma = system: SK-MEL-28 melanoma
SK-MEL-5 melanoma = system: SK-MEL-5 melanoma
SK-OV-3 ovarian = system: SK-OV-3 ovarian
SN12C renal = system: SN12C renal
SNB-19 CNS = system: SNB-19 CNS
SNB-75 CNS = system: SNB-75 CNS
SR leukemia = system: SR leukemia
SW-620 colon = system: SW-620 colon
T-47D breast = system: T-47D breast
TK-10 renal = system: TK-10 renal
U251 CNS = system: U251 CNS
UACC-257 melanoma = system: UACC-257 melanoma
UACC-62 melanoma = system: UACC-62 melanoma
UO-31 renal = system: UO-31 renal
HOP-62 NSCLC = system: HOP-62 NSCLC

Nc1nnc(-c2ccco2)c(-c2ccco2)n1
TGI (786-0 renal): > 100 µM
TGI (A498 renal): > 100 µM
TGI (A549 NSCLC): > 100 µM
TGI (ACHN renal): > 100 µM
TGI (BT-549 breast): > 100 µM
TGI (CAKI-1 renal): > 100 µM
TGI (CCRF-CEM leukemia): > 100 µM
TGI (COLO 205 colon): > 100 µM
TGI (DU-145 prostate): > 100 µM
TGI (EKVX NSCLC): > 100 µM
TGI (HCC-2998 colon): > 100 µM
TGI (HCT-116 colon): > 100 µM
TGI (HCT-15 colon): > 100 µM
TGI (HL-60(TB) leukemia): > 100 µM
TGI (HOP-92 NSCLC): > 100 µM
TGI (HS 578T breast): > 100 µM
TGI (HT29 colon): > 100 µM
TGI (IGROV1 ovarian): > 100 µM
TGI (K-562 leukemia): > 100 µM
TGI (KM12 colon): > 100 µM
TGI (M14 melanoma): > 100 µM
TGI (MALME-3M melanoma): > 100 µM
TGI (MCF7 breast): > 100 µM
TGI (MDA-MB-231 breast): > 100 µM
TGI (MDA-MB-435): > 100 µM
TGI (MDA-N): > 100 µM
TGI (MOLT-4 leukemia): > 100 µM
TGI (NCI-H226 lung): > 100 µM
TGI (NCI-H23 lung): > 100 µM
TGI (NCI-H460 lung): > 100 µM
TGI (NCI-H522 lung): > 100 µM
TGI (NCI/ADR-RES ovarian): > 100 µM
TGI (OVCAR-3 ovarian): > 100 µM
TGI (OVCAR-4 ovarian): > 100 µM
TGI (OVCAR-5 ovarian): > 100 µM
TGI (OVCAR-8 ovarian): > 100 µM
TGI (PC-3 prostate): > 100 µM
TGI (RPMI-8226 leukemia): > 100 µM
TGI (RXF 393 renal): > 100 µM
TGI (SF-268 CNS): > 100 µM
TGI (SF-295 CNS): > 100 µM
TGI (SF-539 CNS): > 100 µM
TGI (SK-MEL-2 melanoma): > 100 µM
TGI (SK-MEL-28 melanoma): > 100 µM
TGI (SK-MEL-5 melanoma): > 100 µM
TGI (SK-OV-3 ovarian): > 100 µM
TGI (SN12C renal): > 100 µM
TGI (SNB-19 CNS): > 100 µM
TGI (SNB-75 CNS): > 100 µM
TGI (SR leukemia): > 100 µM
TGI (SW-620 colon): > 100 µM
TGI (T-47D breast): > 100 µM
TGI (TK-10 renal): > 100 µM
TGI (U251 CNS): > 100 µM
TGI (UACC-257 melanoma): > 100 µM
TGI (UACC-62 melanoma): > 100 µM
TGI (UO-31 renal): > 100 µM

NC(N)=NC(N)=Nc1c(F)c(F)c(F)c(F)c1F
TGI (786-0 renal): > 100 µM
TGI (A498 renal): > 100 µM
TGI (A549 NSCLC): > 100 µM
TGI (ACHN renal): > 100 µM
TGI (BT-549 breast): > 100 µM
TGI (CAKI-1 renal): > 100 µM
TGI (COLO 205 colon): > 100 µM
TGI (DU-145 prostate): > 100 µM
TGI (EKVX NSCLC): > 100 µM
TGI (HCT-116 colon): > 100 µM
TGI (HCT-15 colon): > 100 µM
TGI (HOP-62 NSCLC): > 100 µM
TGI (HOP-92 NSCLC): > 100 µM
TGI (HS 578T breast): > 100 µM
TGI (HT29 colon): > 100 µM
TGI (IGROV1 ovarian): > 100 µM
TGI (K-562 leukemia): > 100 µM
TGI (KM12 colon): > 100 µM
TGI (M14 melanoma): 48.4 µM
TGI (MALME-3M melanoma): > 100 µM
TGI (MCF7 breast): > 100 µM
TGI (MDA-MB-231 breast): > 100 µM
TGI (MDA-MB-435): > 100 µM
TGI (MDA-N): > 100 µM
TGI (NCI-H226 lung): > 100 µM
TGI (NCI-H23 lung): > 100 µM
TGI (NCI-H460 lung): > 100 µM
TGI (NCI-H522 lung): > 100 µM
TGI (NCI/ADR-RES ovarian): > 100 µM
TGI (OVCAR-3 ovarian): > 100 µM
TGI (OVCAR-4 ovarian): > 100 µM
TGI (OVCAR-5 ovarian): > 100 µM
TGI (OVCAR-8 ovarian): > 100 µM
TGI (PC-3 prostate): > 100 µM
TGI (RPMI-8226 leukemia): > 100 µM
TGI (RXF 393 renal): > 100 µM
TGI (SF-268 CNS): > 100 µM
TGI (SF-295 CNS): > 100 µM
TGI (SF-539 CNS): > 100 µM
TGI (SK-MEL-2 melanoma): > 100 µM
TGI (SK-MEL-28 melanoma): > 100 µM
TGI (SK-MEL-5 melanoma): > 100 µM
TGI (SK-OV-3 ovarian): > 100 µM
TGI (SN12C renal): > 100 µM
TGI (SNB-19 CNS): > 100 µM
TGI (SNB-75 CNS): > 100 µM
TGI (SR leukemia): > 100 µM
TGI (SW-620 colon): > 100 µM
TGI (T-47D breast): > 100 µM
TGI (TK-10 renal): > 100 µM
TGI (U251 CNS): > 100 µM
TGI (UACC-257 melanoma): > 100 µM
TGI (UACC-62 melanoma): > 100 µM
TGI (UO-31 renal): > 100 µM
